Assay results published in patent publication US9499509B2, “Dihydrochalcone derivatives and their use as antibiotic agents” (UNIVERSITÉ DU QUÉBEC À CHICOUTIMI, priority 2012, dated 2016).
≈ marks a conversion by molar mass, not a printed value.

Assays:
[1] = system: S. aureus wild type strain (ATCC 25923); experiment: Antibiotic assay (absorption 660 nm, Example 2), S. aureus wild type; type: cell-based, Staphylococcus aureus; conditions: for MIC: S. aureus WT (ATCC 25923); for S. aureus WT ATCC 25923 (toxicity on bacteria): Table 7, same values as MIC of Table 6
Experimental: (§1) Antibiotic agents. Gentamicin sulfate was provided by Calbiochem. Chloramphenicol was provided by Sigma-Aldrich.
(§2) Antibiotic assay. […] The bacteria strains were inoculated in nutrients broth. […] All bacteria were plated in nutrients broth at a concentration of 450 000 bacteria/m L.
(§3) Compounds IV to XXI were diluted in dimethylsulfoxide. […] The compounds were tested at 8 different concentrations.
(§4) Each well contained: 100 μL of bacteria, 100 μL of the compounds tested. The plates were incubated at 37° C. for 6 h. The absorption was read using a Varioskan flash multimode Reader™ (Thermo Scientific) at 660 nm.
(§5) MRSA. Ten (10) strains of MRSA obtained as described above were tested along with an S. aureus wild type (WT) strain (ATCC 25923).

WS-1 cell lines = experiment: Cytotoxicity assay on WS-1 (Example 2); type: cell-based; set-up: unit not given here; conditions: Table 7; WS-1, 48 h
Experimental: Cytotoxicity assay. […] The WS-1 cell lines were provided by ATCC. […] The compounds tested were then added at 8 different concentrations. […] In Table 7, the therapeutic indexes of compounds IV to XXI are presented.

MRSA strains = experiment: Antibiotic assay (absorption 660 nm, Example 2), MRSA strains; type: cell-based, Staphylococcus aureus
Experimental: as §1, §2, §3, §4, §5

| MIC [1] | MIC (MRSA strains; MRSA 1) | MIC (MRSA strains; MRSA 2) | MIC (MRSA strains; MRSA 3) | MIC (MRSA strains; MRSA 4) | MIC (MRSA strains; MRSA 5) | MIC (MRSA strains; MRSA 6) | MIC (MRSA strains; MRSA 7) | MIC (MRSA strains; MRSA 8) | MIC (MRSA strains; MRSA 9) | MIC (MRSA strains; MRSA 10) | SMILES | S. aureus WT ATCC 25923 (toxicity on bacteria) [1] | WS-1 (toxicity on normal cells, fibroblast) (WS-1 cell lines) |
| --- | --- | --- | --- | --- | --- | --- | --- | --- | --- | --- | --- | --- | --- |
| 28 ± 2 µM (≈ 12.2 µg/mL) | 17 ± 2 µM (≈ 7.42 µg/mL) | 7 ± 2 µM (≈ 3.06 µg/mL) | 8.5 ± 0.6 µM (≈ 3.71 µg/mL) | 12.3 ± 0.5 µM (≈ 5.37 µg/mL) | 7.7 ± 0.6 µM (≈ 3.36 µg/mL) | 12 ± 1 µM (≈ 5.24 µg/mL) | 11.4 ± 0.5 µM (≈ 4.98 µg/mL) | 8.2 ± 0.2 µM (≈ 3.58 µg/mL) | 10.8 ± 0.8 µM (≈ 4.71 µg/mL) | 12 ± 1 µM (≈ 5.24 µg/mL) | COc1ccc(CCC(=O)c2c(O)cc(O)c3c2OC(c2ccc(O)cc2)C(O)C3)cc1 (centres unmarked) [XXI] | 28 ± 2 | >50 |
| 14.0 ± 0.8 µM (≈ 6.11 µg/mL) | 14 ± 1 µM (≈ 6.11 µg/mL) | 11.4 ± 0.5 µM (≈ 4.98 µg/mL) | 8.9 ± 0.3 µM (≈ 3.88 µg/mL) | 7.6 ± 0.2 µM (≈ 3.32 µg/mL) | 3.8 ± 0.3 µM (≈ 1.66 µg/mL) | 11.2 ± 1.0 µM (≈ 4.89 µg/mL) | 12.1 ± 0.7 µM (≈ 5.28 µg/mL) | 7.0 ± 1.0 µM (≈ 3.06 µg/mL) | 12 ± 1 µM (≈ 5.24 µg/mL) | 12.6 ± 0.3 µM (≈ 5.5 µg/mL) | COc1ccc(CCC(=O)c2c(O)cc(O)c3c2OC(c2ccc(O)cc2)C(O)C3)cc1 (centres unmarked) [XX] | 14.0 ± 0.8 | >50 |
